# Measurements published in patent US20260193294A1, “POLYPEPTIDE INHIBITOR, AND PREPARATION METHOD THEREFOR AND USE THEREOF” (SHANGHAI HANSOH BIOMEDICAL CO., LTD., priority 2022, published 2026).
# How the values were obtained:
# [1] = Pharmacokinetic determination in beagle dogs (IV); conditions: male, dog, plasma, 0.2 mg/kg
# Protocol: (§1) Beagle dogs were used as test animals to study the pharmacokinetic behavior of the compounds of the examples in the rats (plasma) after IV administration.
# (§2) 3 beagle dogs/group, male, from Yizheng Anlimao Biotechnology Co., Ltd.
# (§3) The compounds of the examples were weighed and dissolved in this solution, vortexed, ultrasonicated for 5 min, and filtered through a 0.22 μm filter membrane to obtain colorless clear solutions with a concentration of 0.1 mg/mL.
# (§4) 3 beagle dogs/group, male were fasted overnight and then respectively administered IV at a dose of 0.2 mg/kg and a volume of 2 mL/kg.
# (§5) 1) Acetonitrile (200 μL) was added to the plasma sample (50 L) for precipitation, and the mixture was mixed and centrifuged at 4500 rpm for 15 min.
# (§6) 2) The treated supernatant solution was taken and subjected to LC/MS/MS to analyze the concentrations of the test compounds. LC/MS/MS analysis instrument: AB Sciex Triple Quad 6500+.
# (§7) Premier Peptide CSH C18 130A 1.7 μm 2.1*100 mm Column, mobile phase: liquid A: 5% acetonitrile aqueous solution (0.1% formic acid), and liquid B: an aqueous solution of 95% acetonitrile (0.1% formic acid) • Flow rate: 0.6 mL/min • Elution time: 0-2.0 min, the eluent was as follows:
# (§8) The main pharmacokinetic parameters were calculated using WinNonlin 8.1.
# [2] = Stability in plasma (human); assay type: in vitro ADME
# Protocol: To study the stability of the compounds of the examples in the plasmas of mice, rats, dogs and humans.
# Preparation of plasma: Animal or human whole blood was collected, then put into a test tube containing an anticoagulant, and centrifuged at 3500 rpm for 10 min, and the upper pale yellow plasma was collected; • working solution of 10 μM test compound: a stock solution was prepared with DMSO, and the working solution was prepared with 100 mM phosphate buffer; • working solution of 10 μM positive control: • procaine: 2.36 mg of procaine was weighed and diluted into a 10 mM stock solution with 1 mL of DMSO. 10 μL of the 10 mM stock solution was pipetted into 1 mL of 100 mM phosphate buffer, such that the final concentration was 100 μM; and • enalapril: 4.93 mg of enalapril was weighed and diluted into a 10 mM stock solution with 1 mL of DMSO; and 10 μL of the 10 mM stock solution was pipetted into 1 mL of 100 mM phosphate buffer, such that the final concentration was 100 μM.
# In a 96-well plate, 285 μL of plasma and 15 μL of 10 μM compound (test compound, and positive control) were successively added and incubated at 37° C.
# 40 μL was taken at 0, 15, 30, 60, 90, and 120 min (sampling points could be fine-tuned), respectively, and 160 μL of an acetonitrile stop solution containing an internal standard was added.
# After centrifugation (3500 rpm, 10 min), 50 μL of the supernatant was taken, diluted by adding 50 μL of DDH2O, and then injected for LC-MS/MS.
# • Instrument: Shimadzu LC-20 AD • Chromatographic column: Phenomenex Gemiu® C18 (50*4.6 mm, 5 μm particle size) • Mobile phase: A: acetonitrile, B: 0.1% formic acid solution • Elution gradient: […]: 5% A→95% A, 2.0-2.1 min: […] • Flow rate: 0.8 mL/min • Run time: 5.0 min • Injection volume: 5 μL
# • Instrument: API4000 liquid chromatography mass spectrometer, AB, US • Ion source: electrospray ionization source (ESI) • Drying gas: N2, temperature 500° C. • Electrospray voltage: 5500V • Detection mode: positive ion detection • Scan mode: multi reaction monitoring (MRM) mode • Scan time: 0.1 s
# All calculations were carried out using Microsoft Excel. The peak area ratio was determined by an extracted ion chromatogram.
# The residual percentage of the compound at each time point was calculated by the following equation: Residual percentage at t hours (%)=peak area ratio at t hours/peak area ratio at 0 hour×100%, in which the peak area ratio at t hr was the peak area ratio of the […] at t min; and • the slope value k was determined by linear regression on the natural logarithm of the curve of the residual percentage of the parent drug versus the incubation time.
# In vitro half-life (in vitro t1/2) was determined by the slope value: […]
# in vivo [3] = conditions: male, beagle, dog, iv, 0.2 mg/kg
# Protocol: as §1, §2, §3, §4, §5, §6, §7, §8
# in vivo [4] = conditions: male, Sprague-Dawley (SD), rat, iv, 1 mg/kg
# Protocol: (§9) SD rats were used as test animals to study the pharmacokinetic behavior of the compounds of the examples in the rats (plasma) after oral or IV administration.
# Preparation of intravenous drug: PBS
# (§10) The compounds of the examples were weighed and dissolved in this solution, vortexed, ultrasonicated for 5 min, and filtered through a 0.22 μm filter membrane to obtain colorless clear solutions with a concentration of 0.2 mg/mL.
# (§11) 3 SD rats/group, male were fasted overnight and then respectively administered IV at a dose of 1 mg/kg and a volume of 5 mL/kg.
# (§12) • Before administration and at 0.083 h, 0.25 h, 0.5 h, 1.0 h, 2.0 h, 4.0 h, 6.0 h, 8.0 h, and 24.0 h after administration (IV), 0.2 mL of blood was collected from the jugular vein, placed in an EDTA-2K test tube, and centrifuged at 6000 rpm for 6 min at 4° C. to separate plasma, which was stored at −20° C.; and the rats were fed 4 h after administration.
# (§13) 1) Acetonitrile (200 μL) was added to the plasma sample (50 μL) for precipitation, and the mixture was mixed and centrifuged at 4500 rpm for 15 min.
# as §6
# (§14) • Liquid phase conditions: Shimadzu LC-30AD pump • Chromatographic column: HALO 90A PFP 2.7 μm 2.1×30 mm, mobile phase: liquid A: 5% acetonitrile aqueous solution (0.1% formic acid), and liquid B: an aqueous solution of 95% acetonitrile (0.1% formic acid) • Flow rate: 0.6 mL/min • Elution time: 0-2.0 min, the eluent was as follows:
# as §8
# Solubility in PBS = assay type: physicochemical; conditions: PBS pH 7.4, room temperature
# Protocol: To study the solubility of the compounds in PBS.
# About 2 mg of the compound was weighed, an appropriate amount of a PBS solution was added, and the mixture was dissolved clear by ultrasonication for 10 seconds. No precipitation was found after standing at room temperature overnight.
# [5] = test system: IL23-induced rat otitis model; assay: In vivo pharmacodynamics in IL23-induced rat otitis model (ear thickening); parameters: species or system SD rats; conditions: 10 mg/kg, gavage, QD
# Text: To evaluate the in vivo efficacy of the compounds in an IL23-induced rat otitis model.
# SD rats, 6-8 weeks old, male, purchased from Jiangsu GemPharmatech Co., Ltd.
# • a. […]
# [6] = Pharmacokinetic determination in rats (IV); conditions: male, Sprague-Dawley (SD), rat, plasma, 1 mg/kg
# Protocol: as §9
# Preparation of intravenous drug: PBS
# as §10, §11, §12, §13, §6, §14, §8
compound,measurement,setting,value
CC(=O)NCCCC[C@@H]1NC(=O)[C@H](Cc2c[nH]c3c(C)cccc23)NC(=O)[C@H]([C@@H](C)O)NC(=O)[C@H](CC(N)=O)NC(=O)[C@@H](NC(C)=O)C(C)(C)SSC(C)(C)[C@@H](C(=O)N[C@@H](Cc2ccc(OCCN)cc2)C(=O)N[C@@H](Cc2ccc3ccccc3c2)C(=O)NC2(C(=O)N[C@@H](CCC(=O)O)C(=O)N[C@@H](CC(N)=O)C(=O)N[C@@H](Cc3cccnc3)C(=O)N(C)CCNC(=O)CCOCCOCC[N+](C)(C)CCNC(=O)COCCOCCNC(=O)COCCOCCNC(=O)CC[C@H](NC(=O)CCCCCCCCCCCCCCC(=O)O)C(=O)O)CCC(F)(F)CC2)NC1=O [Example 1-16-1],AUC(0-inf),[1],76400 ng·h/mL
same,AUC(0-t),[1],68800 ng·h/mL
same,C0,[1],2750 ng/mL
same,MRT,[1],66.9 h
same,clearance,[1],0.04 mL/min/kg
same,"remaining at 4 h, 0.5 µM","[2]; Human plasma, 37° C., read-out: Residual ratio % at 4 h",94.8%
same,half-life at 0.5 μM,"[2]; human, plasma",41.3 h
same,half-life,in vivo [3],53.8 h
same,half-life,in vivo [4],5 h
same,solubility,Solubility in PBS,39.6 to 59.4 mg/mL
same,Inhibition rate on Day 4 (ear thickening),[5],70.77%
same,AUC(0-inf),[6],47600 ng·h/mL
same,AUC(0-t),[6],46100 ng·h/mL
same,C0,[6],12600 ng/mL
same,MRT,[6],6.2 h
same,clearance,[6],0.35 mL/min/kg
